The test system of the assay is rat PTMG model using anti-acetylcholine receptor monoclonal antibody (mAb35). The assay is described as follows: Grip Strength Test in rat PTMG model. The class given is in vivo. Conditions: approx. 30 hours after antibody. Here is the method: (§1) 5-week-old female rats (n=20, LEW/CrlCrlj, 4 weeks old when carried in, Jackson Laboratory Japan) were divided into four groups (Group A, Group B, Group C, and Group D) using body weight measurement results as indexes. Vehicle was administered to Group A, and the test compound MuSK7-pal dissolved in vehicle was administered intravenously to each of Group B (3 mg/kg), Group C (2 mg/kg), and Group D (1 mg/kg) (Day 0). Two hours after intravenous administration, an anti-nicotinic acetylcholine receptor monoclonal antibody (mAb35, National Hospital Organization Nagasaki Kawatana Medical Center) dissolved in PBS (pH 7.4) as a drug for inducing the pathology of myasthenia gravis was administered intraperitoneally to all animals at 200 µg/rat (Day 0). The vehicle, which was a solvent of the compound, was phosphate-buffered saline (PBS) at pH 7.4 containing 20% hydroxypropyl-β-cyclodextrin and 0.02% polysorbate 80 (the same applies to Example 3(2)).
Approximately 30 hours after antibody administration, the muscle strength of the rats was measured using a mouse grip strength meter (GRIP STRENGTH METER FOR MICE, MODEL MK-380M, Muromachi Kikai Co., Ltd.). Specifically, the rats were left for 15 minutes or longer, and after confirming that they were in a resting state, the forelimbs of the rats were made to grasp the mouse grip strength meter. Next, the bodies of the rats were pulled, and the scale of the grip strength meter at the point when the rats released the wire mesh was read (first measurement). The above procedure was repeated once more (second measurement). When the difference between the first and second measurement values was 20% or less, the average value thereof was used as the measurement value. When the difference was 20% or more, the above procedure was further performed once more (third measurement), and the average value of two measurements with close values among the three measurements was used as the measurement value.
as §1, with “(n=24,” for “(n=20,”, “(0.5” for “(3”, “(0.25” for “(2”, “(0.1” for “(1”, “0).” for “0). The vehicle, which was a solvent of the compound, was phosphate-buffered saline (PBS) at pH 7.4 containing 20% hydroxypropyl-β-cyclodextrin and 0.02% polysorbate 80 (the same applies to Example 3(2)).”
The Grip Strength Test was performed approximately 30 hours after antibody administration. The implementation procedure was the same as that in (1) B above.
5-week-old female rats (LEW/CrlCrlj, 4 weeks old when carried in, Jackson Laboratory Japan) were divided into three groups (Group A, Group B, and Group C) using body weight measurement results as indexes. The test compound (tetramer of Ub012 (EAAAK)3) dissolved in vehicle was administered intravenously to Group A (5 mg/kg) (n=5), the test compound (tetramer of Ub012(ΔGG) (EAAAK)3) dissolved in vehicle was administered intravenously to Group B (5 mg/kg) (n=5), and vehicle was administered intravenously to Group C (n=5), respectively (Day 0). Two hours after intravenous administration, an anti-nicotinic acetylcholine receptor monoclonal antibody (mAb35, National Hospital Organization Nagasaki Kawatana Medical Center) dissolved in PBS (pH 7.4) as a drug for inducing the pathology of myasthenia gravis was administered intraperitoneally to all animals at 200 µg/rat (Day 0).
The Grip Strength Test was performed approximately 30 hours after antibody administration. The implementation procedure was the same as that in Example 3(1) B.

Bridge positions count the residues as written; N and C are the ends. Square brackets hold non-standard residues; d marks the D form. Peptide text beside a SMILES is read from it. I, II: the chains in the order shown. * marks the point of attachment. Palmitoyl = CCCCCCCCCCCCCCCC(=O)*; PEG3 = NCCOCCOCCOCCC(=O)O; Dap = NC[C@H](N)C(=O)O

For `CCCCCCCCCCCCCCCC(=O)NCCCC[C@H](NC(=O)[C@H](CNC(=O)CCOCCOCCOCCNC(=O)CNC(=O)[C@@H]1CSCC(=O)N[C@H](Cc2ccc(O)cc2)C(=O)N2CCC[C@H]2C(=O)N[C@@H](CO)C(=O)N[C@@H](Cc2ccc(O)cc2)C(=O)N[C@@H](Cc2c[nH]cn2)C(=O)N[C@@H]([C@@H](C)O)C(=O)N[C@@H](CC(N)=O)C(=O)N[C@@H](C(C)C)C(=O)N[C@@H](C(C)C)C(=O)N[C@@H](C)C(=O)N[C@@H](CO)C(=O)N[C@@H](CC(C)C)C(=O)N[C@@H](CCCCN)C(=O)N[C@@H](CCCNC(=N)N)C(=O)N1)NC(=O)CCOCCOCCOCCNC(=O)CNC(=O)[C@@H]1CSCC(=O)N[C@H](Cc2ccc(O)cc2)C(=O)N2CCC[C@H]2C(=O)N[C@@H](CO)C(=O)N[C@@H](Cc2ccc(O)cc2)C(=O)N[C@@H](Cc2c[nH]cn2)C(=O)N[C@@H]([C@@H](C)O)C(=O)N[C@@H](CC(N)=O)C(=O)N[C@@H](C(C)C)C(=O)N[C@@H](C(C)C)C(=O)N[C@@H](C)C(=O)N[C@@H](CO)C(=O)N[C@@H](CC(C)C)C(=O)N[C@@H](CCCCN)C(=O)N[C@@H](CCCNC(=N)N)C(=O)N1)C(N)=O` [MuSK7-pal] (I: {CH2CO}-[dY]PSYHTNVVASLKRCG[PEG3][Dap]K(Palmitoyl)-NH2 / II: {CH2CO}-[dY]PSYHTNVVASLKRCG[PEG3]; amide I:18-II:C; thioether I:N-I:15, II:N-II:15), the grip strength by setting is: (0.1 mg/kg intravenously (Group D, Example 3(2))) 452 g; (0.25 mg/kg intravenously (Group C, Example 3(2))) 476 g; (0.5 mg/kg intravenously (Group B, Example 3(2))) 461 g; (1 mg/kg intravenously (Group D, Example 3(1))) 577 g; (2 mg/kg intravenously (Group C, Example 3(1))) 474 g; (3 mg/kg intravenously (Group B, Example 3(1))) 467 g.

For the origin of these results see patent publication EP4722228A1, “NEW COMPOUND TARGETING MUSK AND USE THEREOF” (The University of Tokyo, priority 2023, dated 2024).
